Molecular target: T1, CHUK (IKK alpha) (Homo sapiens, UniProt O15111)
T1 construct: purchased Thermo Fisher Scientific (Life Technologies) SelectScreen
Assay: SelectScreen Adapta
Assay type: biochemical
Summary of the method: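 NU5455 was profiled across the SelectScreen Broad panel of kinase activity and binding assays. Z'LYTE reactions such as CSF1R ran at apparent Km ATP, while the Adapta CAMK1 assay used ATP listed as 10. Values are given as percent.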

T1 sequence (O15111 whole entry): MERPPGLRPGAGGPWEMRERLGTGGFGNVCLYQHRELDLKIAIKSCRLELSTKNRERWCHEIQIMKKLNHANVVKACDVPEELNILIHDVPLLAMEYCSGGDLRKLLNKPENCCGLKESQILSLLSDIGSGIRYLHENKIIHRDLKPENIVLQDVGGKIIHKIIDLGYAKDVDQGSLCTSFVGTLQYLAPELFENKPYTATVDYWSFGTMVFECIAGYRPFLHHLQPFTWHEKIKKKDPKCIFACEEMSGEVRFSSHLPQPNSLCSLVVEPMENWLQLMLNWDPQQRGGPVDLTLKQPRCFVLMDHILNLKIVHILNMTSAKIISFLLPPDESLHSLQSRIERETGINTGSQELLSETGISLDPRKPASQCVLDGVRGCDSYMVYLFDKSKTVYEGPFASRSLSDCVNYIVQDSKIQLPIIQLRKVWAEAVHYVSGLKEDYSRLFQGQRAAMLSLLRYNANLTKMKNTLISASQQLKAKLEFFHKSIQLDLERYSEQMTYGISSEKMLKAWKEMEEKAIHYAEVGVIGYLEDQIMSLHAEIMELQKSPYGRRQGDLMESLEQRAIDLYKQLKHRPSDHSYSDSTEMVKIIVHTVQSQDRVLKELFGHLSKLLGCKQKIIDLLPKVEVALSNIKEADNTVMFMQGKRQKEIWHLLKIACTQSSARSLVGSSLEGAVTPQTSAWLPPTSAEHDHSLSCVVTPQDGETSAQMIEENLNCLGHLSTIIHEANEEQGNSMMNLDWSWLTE

For `CN(C(=O)CN1CCOCC1)c1ccc2sc3c(-c4cccc5c(=O)cc(N6CC7CCC(C6)O7)oc45)cccc3c2c1` [NU5455], the inhibition at 1 µM was -4.2%.

Source: article PMC6934184, “Selective DNA-PKcs inhibition extends the therapeutic index of localized radiotherapy and chemotherapy” (The Journal of Clinical Investigation, 2019)
